# Test: Measurement of logP values by HPLC on reversed phase columns (EEC directive 79/831 Annex V.A8)
# Format: physicochemical
# Details: pH 2.7, 0.1% formic acid in water / acetonitrile gradient 10% to 95%
SMILES,logp,Log p
CCCCCC(=O)Nc1cccc(CON=C(c2cc(C)ccc2F)c2nnnn2C)n1 [Example 100],3.92,
CC#CCOC(=O)Nc1cccc(CON=C(c2ccc(F)c(C)c2)c2nnnn2C)n1 [Example 101],3.67,
CCCCCC(=O)Nc1cccc(CON=C(c2cccc(C)c2F)c2nnnn2C)n1 [Example 103],3.96,
CCCCCC(=O)Nc1cccc(CON=C(c2ccc(F)c(C(F)(F)F)c2)c2nnnn2C)n1 [Example 104],4.36,
CCCCCC(=O)Nc1cccc(CON=C(c2cc(C(F)(F)F)ccc2Cl)c2nnnn2C)n1 [Example 106],4.39,
CCCCCC(=O)Nc1cccc(CON=C(c2ccc(C(F)(F)F)c(Cl)c2)c2nnnn2C)n1 [Example 107],4.7,
CCCCCC(=O)Nc1cccc(CON=C(c2cc(C(F)(F)F)ccc2C)c2nnnn2C)n1 [Example 111],4.34,
CCCCCC(=O)Nc1cccc(CON=C(c2cccc(F)c2C)c2nnnn2C)n1 [Example 112],3.96,
CCCCCC(=O)Nc1cccc(CON=C(c2ccc(C)cc2F)c2nnnn2C)n1 [Example 115],3.92,
CCCCCC(=O)Nc1cccc(CON=C(c2ccc(C)c(C(F)(F)F)c2)c2nnnn2C)n1 [Example 118],4.56,
CCCCCC(=O)Nc1cccc(CON=C(c2ccc(F)c(C)c2)c2nnnn2C)n1 [Example 119],4.11,
CCCCCOC(=O)Nc1cccc(CON=C(c2cc(C)ccc2F)c2nnnn2C)n1 [Example 121],4.19,
CCCCCOC(=O)Nc1ccnc(CON=C(c2ccc(C)c(C(F)(F)F)c2)c2nnnn2C)n1 [Example 122],4.59,
CCCCCC(=O)Nc1cccc(CON=C(c2cc(C)cc(F)c2)c2nnnn2C)n1 [Example 123],4.14,
Cc1ccc(C(F)(F)F)cc1C(=NOCc1cccc(N)n1)c1nnnn1C [Example 124],1.73,
Cc1cc(C)cc(C(=NOCc2cccc(N)n2)c2nnnn2C)c1 [Example 125],1.81,
Cn1nnnc1C(=NOCc1cccc(N)n1)c1cc(F)cc(C(F)(F)F)c1 [Example 127],1.75,
Cc1nc(N)cc(CON=C(c2ccc(F)c(Oc3ccccc3)c2)c2nnnn2C)n1 [Example 129],1.75,
Cc1ccc(C(F)(F)F)cc1C(=NOCc1csc(N)n1)c1nnnn1C [Example 130],1.92,
Cn1nnnc1C(=NOCc1csc(N)n1)c1cc(F)cc(C(F)(F)F)c1 [Example 131],2.14,

SMILES,logp,Log p
Cc1ccc(F)c(C(=NOCc2csc(N)n2)c2nnnn2C)c1 [Example 132],1.65,
Cn1nnnc1C(=NOCc1cccc(N)n1)c1cc(C(F)(F)F)ccc1Cl [Example 133],,1.72
Cn1nnnc1C(=NOCc1cccc(N)n1)c1ccc(C(F)(F)F)c(Cl)c1 [Example 134],,1.9
Cc1cc(F)cc(C(=NOCc2cccc(N)n2)c2nnnn2C)c1 [Example 135],,1.46
Cc1ccc(F)c(C(=NOCc2cccc(N)n2)c2nnnn2C)c1 [Example 136],,1.4
Cc1ccc(C(=NOCc2cccc(N)n2)c2nnnn2C)cc1F [Example 137],,1.52
Cc1cccc(C(=NOCc2cccc(N)n2)c2nnnn2C)c1F [Example 138],,1.42
Cc1nc(N)cc(CON=C(c2ccc(F)c(Oc3ccccc3)c2)c2nnn(C)n2)n1 [Example 139],,1.73
Cn1nnc(C(=NOCc2csc(N)n2)c2ccc(F)c(Oc3ccccc3)c2)n1 [Example 140],,2.23
CCCC(=O)Nc1nc(CON=C(c2ccc(F)c(Oc3ccccc3)c2)c2nnnn2C)cs1 [Example 146],,3.35
Cn1nnnc1C(=NOCc1csc(NC(=O)C(C)(C)C)n1)c1ccc(F)c(Oc2ccccc2)c1 [Example 147],,4.05
Cn1nnnc1C(=NOCc1csc(NC(=O)C2CC2)n1)c1ccc(F)c(Oc2ccccc2)c1 [Example 148],,3.48
Cn1nnnc1C(=NOCc1csc(N)n1)c1ccc(F)c(Oc2ccccc2)c1 [Example 149],,2.25
Cc1cc(C(=NOCc2csc(NCCC3CCCCC3)n2)c2nnnn2C)ccc1F [Example 151],,4.36
CCCCC#Cc1nc(CON=C(c2ccc(F)c(C)c2)c2nnnn2C)cs1 [Example 152],,4.78
Cc1cc(C(=NOCc2csc(C#CCCCc3ccccc3)n2)c2nnnn2C)ccc1F [Example 155],,5.32
CCC#Cc1nc(CON=C(c2ccc(F)c(C)c2)c2nnnn2C)cs1 [Example 156],,4.09
Cc1cc(C(=NOCc2cccc(N)n2)c2nnnn2C)ccc1F [Example 159],,1.50
Cc1ccc(C(=NOCc2cccc(N)n2)c2nnnn2C)cc1C(F)(F)F [Example 162],,2.10
Cc1cc(C(=NOCc2csc(N)n2)c2nnnn2C)ccc1F [Example 163],,1.75

# Same assay, conditions: reversed phase HPLC column, pH 2.7, 0.1% formic acid in water / acetonitrile gradient 10% to 95%
row,SMILES,chromatographic logP
1,"Cc1ccc(C(=NOCc2nccc(N)n2)c2nnnn2C)cc1C(F)(F)F [Example 128, 2-{[({(1-methyl-1H-tetrazol-5-yl)[4-methyl-3-(trifluoromethyl)phenyl]methylidene}amino)oxy]methyl}pyrimidin-4-amine]",1.7

# Same assay, conditions: reversed phase HPLC column, pH 2.7, 0.1% formic acid in water / acetonitrile gradient 10% to 95%, read-out: Log p
row,SMILES,chromatographic logP
1,"Cn1nnnc1C(=NOCc1cccc(N)n1)c1cccc(C(F)(F)F)c1F [Example 143, 6-{[({[2-fluoro-3-(trifluoromethyl)phenyl](1-methyl-1H-tetrazol-5-yl)methylidene}amino)oxy]methyl}pyridin-2-amine]",1.75
2,"Cc1ccc(C(=NOCc2csc(N)n2)c2nnnn2C)cc1C(F)(F)F [Example 145, 4-{[({(1-methyl-1H-tetrazol-5-yl)[4-methyl-3-(trifluoromethyl)phenyl]methylidene}amino)oxy]methyl}-1,3-thiazol-2-amine]",2.22
3,"Cc1cc(C(=NOCc2csc(NC(=O)OC(C)(C)C)n2)c2nnnn2C)ccc1F [Example 150, tert-butyl {4-[({[(4-fluoro-3-methylphenyl)(1-methyl-1H-tetrazol-5-yl)methylidene]amino}oxy)methyl]-1,3-thiazol-2-yl}carbamate]",3.89
4,"CCCC#Cc1nc(CON=C(c2ccc(F)c(C)c2)c2nnnn2C)cs1 [Example 153, 1-(4-fluoro-3-methylphenyl)-1-(1-methyl-1H-tetrazol-5-yl)-N-{[2-(pent-1-yn-1-yl)-1,3-thiazol-4-yl]methoxy}methanimine]",4.36
5,"Cc1cc(C(=NOCc2csc(NCC3CC3)n2)c2nnnn2C)ccc1F [Example 154, N-(cyclopropylmethyl)-4-[({[(4-fluoro-3-methylphenyl)(1-methyl-1H-tetrazol-5-yl)methylidene]amino}oxy)methyl]-1,3-thiazol-2-amine]",2.71
6,"Cc1cc(C(=NOCc2csc(Br)n2)c2nnnn2C)ccc1F [Example 161, N-[(2-bromo-1,3-thiazol-4-yl)methoxy]-1-(4-fluoro-3-methylphenyl)-1-(1-methyl-1H-tetrazol-5-yl)methanimine]",3.57

# From patent US20100286173A1 (priority 2008, published 2010)
